± gives the expanded uncertainty stated by the source.
Legend:
[1] = Molar enthalpy of transition or fusion; settings: Crystal; DSC
[2] = Crystal; DTA

| Structure (SMILES) | Molar enthalpy of transition or fusion [1] [kcal/mol] | Normal melting temperature [2] [°C] |
| --- | --- | --- |
| CCC(=O)O[C@](Cc1ccccc1)(c1ccccc1)[C@H](C)CN(C)C.Cl [Dextropropoxyphene hydrochloride] | 7.6 ± 0.382 | 168 ± 2 |
| CC(=O)Nc1ccc(O)cc1 [N-acetyl-p-aminophenol] | 6.51 ± 0.196 | 170.2 ± 2 |
| CN[C@@H](C)[C@@H](O)c1ccccc1.Cl [Pseudoephedrine hydrochloride] | 6.54 ± 0.237 | 185 ± 2 |
| COc1cccc([C@@]2(O)CCCC[C@@H]2CN(C)C)c1.Cl [tramadol hydrochloride] | 7.07 ± 0.311 | 184.1 ± 2 |
